The text below walks through data of ChEMBL document CHEMBL1148572, “1-((S)-2-aminopropyl)-1H-indazol-6-ol: a potent peripherally acting 5-HT2 receptor agonist with ocular hypotensive activity” (J Med Chem, 2006).

A value given as a limit tells only on which side of the number the result lay.

Data set [1] concerns the target Muscarinic acetylcholine receptor (Homo sapiens) (UniProt P20309+P08173+P11229+P08172+P08912). The data set is described as follows: Inhibition of non selective binding to muscarinic receptor at 1 nM. It counts as protein assay.
In data set [2] the target is Sodium-dependent noradrenaline transporter (Homo sapiens, UniProt P23975). Nature of the data set: Inhibition of NET at 10 uM.
Chain of Sodium-dependent noradrenaline transporter (P23975 whole entry): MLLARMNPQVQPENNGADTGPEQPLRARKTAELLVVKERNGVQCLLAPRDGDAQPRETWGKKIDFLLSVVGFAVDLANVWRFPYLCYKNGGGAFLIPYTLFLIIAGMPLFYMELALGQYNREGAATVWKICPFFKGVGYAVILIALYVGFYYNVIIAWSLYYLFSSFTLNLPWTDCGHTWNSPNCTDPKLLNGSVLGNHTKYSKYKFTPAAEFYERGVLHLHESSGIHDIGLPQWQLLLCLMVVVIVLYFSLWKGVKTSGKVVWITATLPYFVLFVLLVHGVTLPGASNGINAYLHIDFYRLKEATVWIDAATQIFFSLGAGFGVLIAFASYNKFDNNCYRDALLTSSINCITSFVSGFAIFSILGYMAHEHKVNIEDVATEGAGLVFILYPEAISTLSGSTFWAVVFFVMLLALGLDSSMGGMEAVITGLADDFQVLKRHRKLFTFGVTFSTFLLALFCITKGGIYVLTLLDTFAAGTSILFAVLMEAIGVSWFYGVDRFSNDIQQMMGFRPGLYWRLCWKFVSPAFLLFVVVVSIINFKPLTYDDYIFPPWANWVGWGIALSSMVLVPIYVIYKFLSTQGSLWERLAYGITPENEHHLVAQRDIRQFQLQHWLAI
The target of data set [3] is Opioid receptors; mu/kappa/delta (Homo sapiens) (UniProt P41145+P41143+P35372). Nature of the data set: Inhibition of non selective binding to opiate receptor at 100 nM. It counts as protein assay.
Chain of Opioid receptors; mu/kappa/delta (Homo sapiens) (P35372 whole entry, looked up): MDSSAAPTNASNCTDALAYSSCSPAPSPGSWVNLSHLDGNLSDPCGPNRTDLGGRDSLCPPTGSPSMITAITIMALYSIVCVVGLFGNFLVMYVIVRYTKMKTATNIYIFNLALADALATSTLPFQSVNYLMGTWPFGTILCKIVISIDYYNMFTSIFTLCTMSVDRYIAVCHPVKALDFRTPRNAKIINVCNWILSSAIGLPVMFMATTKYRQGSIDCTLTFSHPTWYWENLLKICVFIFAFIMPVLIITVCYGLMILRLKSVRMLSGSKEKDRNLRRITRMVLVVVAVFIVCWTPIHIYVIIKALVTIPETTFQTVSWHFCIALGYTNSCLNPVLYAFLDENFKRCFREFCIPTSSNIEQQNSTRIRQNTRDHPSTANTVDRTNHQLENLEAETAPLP
Chain of Opioid receptors; mu/kappa/delta (Homo sapiens) (P41143 whole entry, looked up): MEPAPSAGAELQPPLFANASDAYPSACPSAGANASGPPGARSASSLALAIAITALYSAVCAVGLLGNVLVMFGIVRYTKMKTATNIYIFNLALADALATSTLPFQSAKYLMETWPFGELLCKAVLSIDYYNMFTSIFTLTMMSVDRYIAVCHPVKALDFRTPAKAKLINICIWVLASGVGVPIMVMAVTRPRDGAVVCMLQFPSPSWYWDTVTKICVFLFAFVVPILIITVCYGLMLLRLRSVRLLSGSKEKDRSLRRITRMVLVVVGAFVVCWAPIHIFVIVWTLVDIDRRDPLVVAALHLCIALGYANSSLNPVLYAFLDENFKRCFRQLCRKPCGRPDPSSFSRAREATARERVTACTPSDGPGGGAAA
Chain of Opioid receptors; mu/kappa/delta (Homo sapiens) (P41145 whole entry, looked up): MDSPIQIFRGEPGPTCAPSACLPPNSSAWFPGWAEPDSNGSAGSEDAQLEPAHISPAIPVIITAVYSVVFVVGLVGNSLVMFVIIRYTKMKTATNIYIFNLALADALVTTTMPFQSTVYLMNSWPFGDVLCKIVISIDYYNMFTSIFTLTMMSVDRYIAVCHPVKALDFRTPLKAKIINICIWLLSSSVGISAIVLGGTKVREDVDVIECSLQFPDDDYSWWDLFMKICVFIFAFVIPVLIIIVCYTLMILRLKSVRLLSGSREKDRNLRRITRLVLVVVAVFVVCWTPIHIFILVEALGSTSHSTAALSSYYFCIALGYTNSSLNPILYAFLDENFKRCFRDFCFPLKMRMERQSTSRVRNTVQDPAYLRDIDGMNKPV
Data set [4] concerns the target T1, monoamine oxidase A (MAO-A) (Rattus norvegicus, UniProt P21396).
T1 sequence (P21396 whole entry): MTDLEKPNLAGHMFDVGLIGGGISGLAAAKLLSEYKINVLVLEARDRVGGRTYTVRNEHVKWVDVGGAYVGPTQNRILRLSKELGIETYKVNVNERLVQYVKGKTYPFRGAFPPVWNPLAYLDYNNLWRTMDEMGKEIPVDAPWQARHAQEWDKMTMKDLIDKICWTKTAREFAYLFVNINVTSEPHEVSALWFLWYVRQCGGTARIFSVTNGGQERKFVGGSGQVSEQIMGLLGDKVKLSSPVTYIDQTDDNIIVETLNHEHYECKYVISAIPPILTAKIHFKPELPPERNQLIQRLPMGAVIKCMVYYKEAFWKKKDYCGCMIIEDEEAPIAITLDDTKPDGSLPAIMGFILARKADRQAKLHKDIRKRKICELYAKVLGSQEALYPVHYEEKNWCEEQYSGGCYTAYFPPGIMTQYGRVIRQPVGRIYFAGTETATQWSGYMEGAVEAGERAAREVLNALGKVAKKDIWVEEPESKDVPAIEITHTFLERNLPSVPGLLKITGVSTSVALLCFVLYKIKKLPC
Nature of the data set: Inhibition of monoamine oxidase A in rat brain at 100 nM. It counts as tissue-based.

The nature of data set [5]: Inhibitory activity at TBOB site in GABA gated chloride channel at 1 nM.
A short description of data set [6]: Inhibitory activity at TBOB site in GABA gated chloride channel at 100 nM.
For data set [7], the species on record is Homo sapiens. The data set is described as follows: Inhibition of inositol triphosphate IP3 at 1 nM. The data set is classed as functional.
Data set [8] has as its target Protein kinase C, PKC; classical/novel (Homo sapiens) (UniProt O94806+P17252+P05129+Q05655+P05771+Q02156+P24723+Q15139+Q04759). The data set is described as follows: Inhibition of PDBu activated protein kinase C at 100 nM. The data set is classed as protein assay.
Data set [9] concerns the target Leukotriene B4 receptor (Homo sapiens) (UniProt Q9NPC1+Q15722). The data set is described as follows: Inhibition of leukotriene B4 at 10 uM. The data set is classed as protein assay.
Data set [10] concerns the target T2, Cysteinyl leukotriene receptor 1 (Homo sapiens) (UniProt Q9Y271).
T2 sequence (whole entry): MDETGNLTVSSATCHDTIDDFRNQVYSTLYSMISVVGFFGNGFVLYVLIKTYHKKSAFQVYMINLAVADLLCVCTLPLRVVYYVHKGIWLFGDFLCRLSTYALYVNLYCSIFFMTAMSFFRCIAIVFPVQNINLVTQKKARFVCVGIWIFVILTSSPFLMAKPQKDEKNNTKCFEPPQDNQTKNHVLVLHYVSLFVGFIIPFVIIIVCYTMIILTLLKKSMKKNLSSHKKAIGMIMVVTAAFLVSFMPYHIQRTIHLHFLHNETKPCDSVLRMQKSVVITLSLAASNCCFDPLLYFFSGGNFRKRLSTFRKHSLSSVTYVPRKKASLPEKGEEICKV
The data set is described as follows: Inhibition of leukotriene D4 at 1 nM.

Data set [11] deals with Epidermal growth factor receptor (Homo sapiens) (UniProt P00533). The data set is described as follows: Inhibition of EGFR at 100 nM.
Chain of Epidermal growth factor receptor (Homo sapiens) (P00533 whole entry): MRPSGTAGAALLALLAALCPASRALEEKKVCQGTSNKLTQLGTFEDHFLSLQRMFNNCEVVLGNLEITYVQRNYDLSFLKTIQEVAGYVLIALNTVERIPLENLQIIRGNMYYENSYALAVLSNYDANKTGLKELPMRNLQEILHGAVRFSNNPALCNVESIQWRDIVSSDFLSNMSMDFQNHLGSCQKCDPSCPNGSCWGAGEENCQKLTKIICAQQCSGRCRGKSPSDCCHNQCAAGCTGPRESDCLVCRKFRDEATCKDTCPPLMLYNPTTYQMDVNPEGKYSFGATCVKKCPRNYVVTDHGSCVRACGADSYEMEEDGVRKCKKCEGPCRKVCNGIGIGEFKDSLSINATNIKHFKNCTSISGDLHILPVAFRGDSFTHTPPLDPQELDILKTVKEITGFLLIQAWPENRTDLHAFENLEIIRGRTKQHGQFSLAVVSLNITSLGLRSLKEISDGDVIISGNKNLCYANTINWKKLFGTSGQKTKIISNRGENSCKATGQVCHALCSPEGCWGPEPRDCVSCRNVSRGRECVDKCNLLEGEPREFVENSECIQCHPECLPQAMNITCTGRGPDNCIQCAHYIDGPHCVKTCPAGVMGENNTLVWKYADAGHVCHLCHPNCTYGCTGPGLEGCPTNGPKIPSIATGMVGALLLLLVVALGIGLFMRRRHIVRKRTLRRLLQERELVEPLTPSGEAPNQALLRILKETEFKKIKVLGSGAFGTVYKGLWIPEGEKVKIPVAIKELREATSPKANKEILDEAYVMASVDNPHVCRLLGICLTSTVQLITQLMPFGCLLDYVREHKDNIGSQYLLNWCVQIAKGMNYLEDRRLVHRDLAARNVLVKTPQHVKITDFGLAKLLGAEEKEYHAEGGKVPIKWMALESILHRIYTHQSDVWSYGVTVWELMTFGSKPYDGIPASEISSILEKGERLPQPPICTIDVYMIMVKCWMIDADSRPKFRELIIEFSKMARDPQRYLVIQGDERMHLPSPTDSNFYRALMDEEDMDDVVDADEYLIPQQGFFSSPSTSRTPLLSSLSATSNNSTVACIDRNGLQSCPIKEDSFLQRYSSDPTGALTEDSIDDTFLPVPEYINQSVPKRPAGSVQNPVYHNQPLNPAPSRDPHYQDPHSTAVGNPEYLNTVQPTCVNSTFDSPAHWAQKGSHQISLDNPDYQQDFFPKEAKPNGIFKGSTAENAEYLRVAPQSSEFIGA
Data set [12] addresses T3, B2 bradykinin receptor (Homo sapiens) (UniProt P30411).
T3 sequence (whole entry): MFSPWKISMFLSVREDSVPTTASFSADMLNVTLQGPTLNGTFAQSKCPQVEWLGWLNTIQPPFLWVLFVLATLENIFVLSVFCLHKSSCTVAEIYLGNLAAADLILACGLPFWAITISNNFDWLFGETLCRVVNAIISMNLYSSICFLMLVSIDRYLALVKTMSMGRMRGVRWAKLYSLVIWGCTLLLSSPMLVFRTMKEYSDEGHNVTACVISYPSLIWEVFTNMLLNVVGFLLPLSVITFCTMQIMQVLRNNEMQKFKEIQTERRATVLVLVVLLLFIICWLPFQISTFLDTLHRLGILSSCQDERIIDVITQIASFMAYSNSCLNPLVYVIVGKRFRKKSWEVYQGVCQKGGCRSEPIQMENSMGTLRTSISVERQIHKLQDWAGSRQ
Nature of the data set: Inhibition of bradykinin 2 receptor at 100 nM.

The nature of data set [13]: Inhibition of non selective binding to VIP at 100 nM.
Data set [14] deals with MDR1 (P-gp). Nature of the data set: Permeability from basolateral to apical side of the MDCK cell transfected with human MDR1. It counts as ADME, cell-based.
Data set [15] can be described thus: Half life in phosphate buffer at pH 7.4 in 25 degC. The data set is classed as ADME.
Data set [16] deals with 5-hydroxytryptamine receptor 1B (Homo sapiens, UniProt P28222). Nature of the data set: Inhibitory activity against 5HT1B receptor.
Chain of 5-hydroxytryptamine receptor 1B (P28222 whole entry): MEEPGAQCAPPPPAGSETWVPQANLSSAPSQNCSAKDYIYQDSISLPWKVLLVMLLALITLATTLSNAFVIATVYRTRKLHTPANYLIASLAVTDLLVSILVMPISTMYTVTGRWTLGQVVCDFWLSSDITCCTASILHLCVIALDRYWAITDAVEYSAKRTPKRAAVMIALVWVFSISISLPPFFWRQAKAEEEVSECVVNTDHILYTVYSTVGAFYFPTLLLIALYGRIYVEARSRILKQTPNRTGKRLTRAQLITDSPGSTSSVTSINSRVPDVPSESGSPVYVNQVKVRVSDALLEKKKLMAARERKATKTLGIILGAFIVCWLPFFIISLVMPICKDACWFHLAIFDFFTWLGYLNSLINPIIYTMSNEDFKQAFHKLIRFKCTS
In data set [17] the target is T4, 5-hydroxytryptamine receptor 1A (Homo sapiens, UniProt P08908).
T4 sequence (P08908 whole entry): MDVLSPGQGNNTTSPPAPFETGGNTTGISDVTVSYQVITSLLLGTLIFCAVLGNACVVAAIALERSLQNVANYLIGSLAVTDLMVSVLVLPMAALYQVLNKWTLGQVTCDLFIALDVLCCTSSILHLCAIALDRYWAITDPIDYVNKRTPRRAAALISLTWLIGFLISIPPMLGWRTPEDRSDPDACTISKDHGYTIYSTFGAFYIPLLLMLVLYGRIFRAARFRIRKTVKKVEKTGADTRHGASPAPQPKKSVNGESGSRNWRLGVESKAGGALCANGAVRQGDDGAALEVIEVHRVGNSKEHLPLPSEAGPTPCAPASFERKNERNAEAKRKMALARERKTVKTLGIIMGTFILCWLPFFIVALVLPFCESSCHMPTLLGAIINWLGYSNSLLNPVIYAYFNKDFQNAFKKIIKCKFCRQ
Nature of the data set: Agonistic activity at cloned human 5HT1A receptor expressed in CHO cells by inhibition of forskolin-induced cAMP production. It counts as functional, cell-based. A general note: Changes in cAMP serve as a functional read-out for many G protein-coupled receptors.

The target of data set [18] is Dopamine receptor (Homo sapiens) (UniProt P14416+P35462+P21918+P21917+P21728). The data set is described as follows: Inhibition of non selective binding to dopamine receptor at 100 nM. The data set is classed as protein assay.

Chain of Leukotriene B4 receptor (Homo sapiens) (Q15722 whole entry, looked up): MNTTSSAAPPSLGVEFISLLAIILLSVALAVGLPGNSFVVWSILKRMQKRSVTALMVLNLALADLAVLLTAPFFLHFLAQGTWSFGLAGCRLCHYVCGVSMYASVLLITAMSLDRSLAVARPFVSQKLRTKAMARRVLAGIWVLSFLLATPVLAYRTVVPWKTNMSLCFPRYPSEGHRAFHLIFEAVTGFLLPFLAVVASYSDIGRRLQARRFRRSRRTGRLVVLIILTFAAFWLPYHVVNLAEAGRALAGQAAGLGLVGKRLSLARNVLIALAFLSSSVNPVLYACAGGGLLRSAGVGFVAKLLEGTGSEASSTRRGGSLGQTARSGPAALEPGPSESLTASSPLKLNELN
Chain of Leukotriene B4 receptor (Homo sapiens) (Q9NPC1 whole entry, looked up): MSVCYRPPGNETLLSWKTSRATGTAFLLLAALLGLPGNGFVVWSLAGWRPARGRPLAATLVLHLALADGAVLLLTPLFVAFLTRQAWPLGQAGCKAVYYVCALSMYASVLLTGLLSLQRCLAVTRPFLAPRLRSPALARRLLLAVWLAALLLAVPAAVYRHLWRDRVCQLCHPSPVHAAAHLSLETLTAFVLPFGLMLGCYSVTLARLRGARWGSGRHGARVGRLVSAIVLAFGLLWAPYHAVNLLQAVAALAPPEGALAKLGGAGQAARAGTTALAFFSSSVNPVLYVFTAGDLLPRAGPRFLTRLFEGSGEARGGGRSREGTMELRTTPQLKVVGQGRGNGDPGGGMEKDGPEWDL

One may read the inhibition as the relative decrease from the control value, in per cent. In general, Papp B→A refers to how fast a substance crosses the layer from the basolateral side. As a reminder, the Ki is a dissociation constant, usually derived from enzyme kinetics or from competition with a known ligand. Broadly, the EC50 is the concentration at which the effect is half-maximal. High values mean lower potency in that assay, low ones higher potency in that assay. On to `C[C@H](N)Cn1ncc2ccc(O)cc21`, for which the inhibition in [1] was -0.51%; in data set [2], 42.6%; in data set [3] it was -2.14%; in data set [5] it was -3.75%; in data set [6], -5.9%; in data set [7], 6.53%. For the same molecule, the inhibition is 11.3% in data set [8]; 13% in data set [9]; 2.65% in data set [10]; 1.86% in data set [11]; 0.41% in data set [12]; 5.41% in data set [13]. For the same molecule, the inhibition in [18] was determined as 18.1%. The inhibition at 0.1 µM in data set [4] is -22.3%. Besides, the Papp B→A in [14] stood at 0.88 ×10⁻⁶ cm/s. In data set [15], the T1/2 was determined as 4.6 yr. For the same molecule, the Ki in data set [16] was above 10 µM. Further, the EC50 in data set [17] turned out to be 1.46 µM.
